Test results: patent US20110301142A1, “ANTAGONISTS OF LYSOPHOSPHATIDIC ACID RECEPTORS” (priority 2008, published 2011)
pIC50: −log10 of the molar value.

How the values were obtained:
human LPA3 = target: T1, human LPA3 (Homo sapiens, UniProt Q9UBY5); test: LPA3 calcium flux assay; type: cell-based; conditions: Human LPA3 expressing CHO cells, stimulated with 10 nM LPA; read-out: HLPA3 Ca Flux IC50
T1 construct: The full-length cDNA fragment for human LPA3 was obtained by PCR from the vector; expressed in transfected cells; cDNA from the Missouri S&T cDNA Resource Center
T1 sequence (Q9UBY5 1-353): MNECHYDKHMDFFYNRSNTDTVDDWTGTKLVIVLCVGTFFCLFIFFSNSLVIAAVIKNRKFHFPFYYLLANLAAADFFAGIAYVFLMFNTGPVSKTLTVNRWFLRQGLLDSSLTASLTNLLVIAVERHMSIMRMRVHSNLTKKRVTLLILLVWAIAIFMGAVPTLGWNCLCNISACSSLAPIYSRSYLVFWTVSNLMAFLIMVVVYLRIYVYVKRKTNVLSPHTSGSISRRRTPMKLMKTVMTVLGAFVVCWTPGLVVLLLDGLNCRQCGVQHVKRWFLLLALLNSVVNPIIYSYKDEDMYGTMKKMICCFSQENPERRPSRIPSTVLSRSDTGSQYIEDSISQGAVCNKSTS
In short: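 Stably transfected CHO cells, serum-starved overnight, loaded with Calcium 4 dye 1 h at 37 °C in HBSS/20 mM Hepes with 0.3% fatty-acid-free HSA. Compounds preincubated 30 min at room temperature, then cells stimulated with 10 nM LPA; intracellular Ca2+ read by fluorescence; IC50 from titration curves.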

human LPA1 = target: T2, human LPA1 (Homo sapiens, UniProt Q92633); test: LPA1 calcium flux assay (HLPA1 Ca Flux); type: cell-based; conditions: Human LPA1 expressing CHO cells, stimulated with 10 nM LPA
T2 construct: the full-length cDNA for human LPA1 was obtained by PCR of the reverse transcription reaction; expressed in transfected cells
In short: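 CHO cells stably expressing cloned human LPA1, serum-starved overnight and loaded with Calcium 4 dye, were preincubated 30 min at room temperature with compound. Cells were then challenged with 10 nM LPA and intracellular Ca2+ measured; IC50 values came from titration curves.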

T2 sequence (Q92633 whole entry): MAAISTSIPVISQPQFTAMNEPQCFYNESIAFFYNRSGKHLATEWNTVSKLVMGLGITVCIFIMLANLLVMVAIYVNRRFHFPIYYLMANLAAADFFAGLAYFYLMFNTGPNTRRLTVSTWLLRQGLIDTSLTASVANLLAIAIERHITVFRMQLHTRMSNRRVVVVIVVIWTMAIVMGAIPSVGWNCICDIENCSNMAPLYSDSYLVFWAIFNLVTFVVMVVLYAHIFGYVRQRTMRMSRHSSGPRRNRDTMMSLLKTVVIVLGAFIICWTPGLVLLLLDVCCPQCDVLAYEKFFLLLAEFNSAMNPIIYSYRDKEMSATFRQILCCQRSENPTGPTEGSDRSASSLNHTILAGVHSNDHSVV

| pIC50 (human LPA3) | pIC50 (human LPA1) | Compound |
| --- | --- | --- |
| 4.30 to 6.00 | > 6.52 | Cc1ccccc1[C@@H](C)OC(=O)Nc1c(C)noc1-c1ccc(-c2ccc(CC(=O)O)cc2)cc1 [Compound 1-124] |
| 4.30 to 6.00 | > 6.52 | Cc1noc(-c2ccc(-c3ccc(CC(=O)O)cn3)cn2)c1NC(=O)O[C@H](C)c1ccccc1F [Compound 1-126, (6′-{4-[(R)-1-(2-Fluoro-phenyl)-ethoxycarbonylamino]-3-methyl-isoxazol-5-yl}-[2,3,1]bipyridinyl-5-yl)-acetic acid] |
| 4.30 to 6.00 | > 6.52 | Cc1noc(-c2ccc(-c3ccc(CC(=O)O)cc3)cc2Cl)c1NC(=O)O[C@H](C)c1ccccc1Cl [Compound 1-129, (3′-Chloro-4′-{4-[(R)-1-(2-chloro-phenyl)-ethoxycarbonylamino]-3-methyl-isoxazol-5-yl}-biphenyl-4-yl)-acetic acid] |
| 6.00 to 6.52 | > 6.52 | CCC(C(=O)O)c1ccc(-c2ccc(-c3onc(C)c3NC(=O)O[C@H](C)c3ccccc3Cl)cc2)cc1 (stereo partly drawn) [Compound 1-130, 2-(4′-{4-[(R)-1-(2-Chloro-phenyl)-ethoxycarbonylamino]-3-methyl-isoxazol-5-yl}-biphenyl-4-yl)-butyric acid] |
| 4.30 to 6.00 | > 6.52 | Cc1noc(-c2ccc(-c3ccc(CC(=O)O)cc3)c(F)c2)c1NC(=O)O[C@H](C)c1ccccc1Cl [Compound 1-132, (4′-{4-[(R)-1-(2-Chloro-phenyl)-ethoxycarbonylamino]-3-methyl-isoxazol-5-yl}-2′-fluoro-biphenyl-4-yl)-acetic acid] |
| 6.00 to 6.52 | > 6.52 | Cc1noc(-c2ccc(-c3ccc(C(=O)O)cc3)cc2)c1NC(=O)O[C@H](C)c1ccccc1Cl [Compound 1-133, 4′-{4-[(R)-1-(2-Chloro-phenyl)-ethoxycarbonylamino]-3-methyl-isoxazol-5-yl}-biphenyl-4-carboxylic acid] |
| 4.30 to 6.00 | > 6.52 | Cc1noc(-c2ccc(Oc3cccc(CC(=O)O)c3)cc2)c1NC(=O)O[C@H](C)c1ccccc1Cl [Compound 1-137, [3-(4-{4-[(R)-1-(2-Chloro-phenyl)-ethoxycarbonylamino]-3-methyl-isoxazol-5-yl}-phenoxy)-phenyl]acetic acid] |
| 6.00 to 6.52 | > 6.52 | Cc1noc(-c2ccc(Oc3ccc(CC(=O)O)cc3)cc2)c1NC(=O)O[C@H](C)c1ccccc1Cl [Compound 1-138, [4-(4-{4-[(R)-1-(2-Chloro-phenyl)-ethoxycarbonylamino]-3-methyl-isoxazol-5-yl}-phenoxy)-phenyl]-acetic acid] |
| 4.30 to 6.00 | > 6.52 | Cc1noc(-c2ccc(-c3ccc(C(O)C(=O)O)cc3)cc2)c1NC(=O)O[C@H](C)c1ccccc1F (stereo partly drawn) [Compound 1-139, (4′-{4-[(R)-1-(2-Fluoro-phenyl)-ethoxycarbonylamino]-3-methyl-isoxazol-5-yl}-biphenyl-4-yl)-hydroxy-acetic acid] |
| 4.30 to 6.00 | > 6.52 | CCC(C(=O)O)c1ccc(-c2ccc(-c3onc(C)c3NC(=O)O[C@H](C)c3ccccc3)cn2)cc1 (some centres unmarked) [Compound 1-142] |
| 4.30 to 6.00 | > 6.52 | Cc1noc(-c2ccc(-c3ccc(CC(=O)O)cc3)cc2)c1NC(=O)O[C@@H](C)c1ccccc1 [Compound 1-143, {4′-[3-Methyl-4-((S)-1-phenyl-ethoxycarbonylamino)-isoxazol-5-yl]-biphenyl-4-yl}-acetic acid] |
| < 4.30 | 4.30 to 6.00 | Cc1noc(-c2ccc(-c3ccc(CC(=O)O)cc3)cc2)c1NC(=O)O[C@H](C)c1cccc(O)c1 [Compound 1-144, (4′-{4-[(R)-1-(3-Hydroxy-phenyl)-ethoxycarbonylamino]-3-methyl-isoxazol-5-yl}-biphenyl-4-yl)-acetic acid] |

The next lines start with the compound.

| Compound | pIC50 (human LPA3) | pIC50 (human LPA1) |
| --- | --- | --- |
| Cc1noc(-c2ccc(CS(=O)(=O)c3cccc(CC(=O)O)c3)cc2)c1NC(=O)OC(C)c1ccccc1Cl (centres unmarked) [Compound 1-98, [3-(4-{4-[1-(2-Chloro-phenyl)-ethoxycarbonylamino]-3-methyl-isoxazol-5-yl}-phenylmethanesulfonyl)-phenyl]acetic acid] | < 4.30 | > 6.52 |
| Cc1noc(-c2ccc(CS(=O)(=O)c3ccccc3CC(=O)O)cc2)c1NC(=O)OC(C)c1ccccc1Cl (centres unmarked) [Compound 1-99, [2-(4-{4-[1-(2-Chloro-phenyl)-ethoxycarbonylamino]-3-methyl-isoxazol-5-yl}-phenylmethanesulfonyl)-phenyl]-acetic acid] | 4.30 to 6.00 | > 6.52 |
| Cc1noc(-c2ccc(COc3ccc(CC(=O)O)cc3)cc2)c1NC(=O)OC(C)c1ccccc1Cl (centres unmarked) [Compound 1-100, [4-(4-{4-[1-(2-Chloro-phenyl)-ethoxycarbonylamino]-3-methyl-isoxazol-5-yl}-benzyloxy)-phenyl]-acetic acid] | 4.30 to 6.00 | > 6.52 |
| COC(=O)Cc1ccc(OCc2ccc(-c3onc(C)c3NC(=O)O[C@H](C)c3ccccc3Cl)cc2)cc1 [Compound 1-102, [4-(4-{4-[(R)-1-(2-Chloro-phenyl)-ethoxycarbonylamino]-3-methyl-isoxazol-5-yl}-benzyloxy)-phenyl]-acetic acid methyl ester] | 4.30 to 6.00 | > 6.52 |
| Cc1noc(-c2ccc(COc3ccc(CC(=O)O)cc3)cc2)c1NC(=O)O[C@H](C)c1ccccc1Cl [Compound 1-103, [4-(4-{4-[(R)-1-(2-Chloro-phenyl)-ethoxycarbonylamino]-3-methyl-isoxazol-5-yl}-benzyloxy)-phenyl]-acetic acid] | 4.30 to 6.00 | > 6.52 |
| Cc1noc(-c2ccc(Sc3ccc(CC(=O)O)cc3)cc2)c1NC(=O)O[C@H](C)c1ccccc1F [Compound 1-109, [4-(4-{4-[(R)-1-(2-Fluoro-phenyl)-ethoxycarbonylamino]-3-methyl-isoxazol-5-yl}-phenylsulfanyl)-phenyl]-acetic acid] | 4.30 to 6.00 | > 6.52 |
| Cc1noc(-c2ccc(-c3ccc(CC(=O)O)cc3)cc2)c1NC(=O)O[C@@H](C)c1ccccc1F [Compound 1-111, (4′-{4-[(S)-1-(2-Fluoro-phenyl)-ethoxycarbonylamino]-3-methyl-isoxazol-5-yl}-biphenyl-4-yl)-acetic acid] | 4.30 to 6.00 | > 6.52 |
| Cc1noc(-c2ccc(-c3ccc(CC(=O)O)cc3)cc2)c1NC(=O)O[C@@H](C)c1ccccc1Cl [Compound 1-112, (4′-{4-[(S)-1-(2-Chloro-phenyl)-ethoxycarbonylamino]-3-methyl-isoxazol-5-yl}-biphenyl-4-yl)-acetic acid] | 4.30 to 6.00 | 6.00 to 6.52 |
| Cc1noc(-c2ccc(COc3ccccc3CC(=O)O)cc2)c1NC(=O)O[C@H](C)c1ccccc1Cl [Compound 1-114, [2-(4-{4-[(R)-1-(2-Chloro-phenyl)-ethoxycarbonylamino]-3-methyl-isoxazol-5-yl}-benzyloxy)-phenyl]-acetic acid] | 4.30 to 6.00 | > 6.52 |
| Cc1noc(-c2ccc(-c3ccc(CC(=O)O)cc3)cc2)c1NC(=O)OC(C)c1cccc(F)c1F (centres unmarked) [Compound 1-116, (4′-{4-[1-(2,3-Difluoro-phenyl)-ethoxycarbonylamino]-3-methyl-isoxazol-5-yl}-biphenyl-4-yl)-acetic acid] | 4.30 to 6.00 | > 6.52 |
| Cc1noc(-c2ccc(-c3ccc(CC(=O)O)cc3)cc2)c1NC(=O)OC(C)c1ccc(F)cc1F (centres unmarked) [Compound 1-117, (4′-{4-[1-(2,4-Difluoro-phenyl)-ethoxycarbonylamino]-3-methyl-isoxazol-5-yl}-biphenyl-4-yl)-acetic acid] | 4.30 to 6.00 | > 6.52 |
| Cc1noc(-c2ccc(-c3ccc(CC(=O)O)cc3)cc2)c1NC(=O)OC(C)c1cc(F)ccc1F (centres unmarked) [Compound 1-119, (4′-{4-[1-(2,5-Difluoro-phenyl)-ethoxycarbonylamino]-3-methyl-isoxazol-5-yl}-biphenyl-4-yl)-acetic acid] | 4.30 to 6.00 | > 6.52 |
| Cc1noc(-c2ccc(-c3ccc(CC(=O)O)cc3)cc2)c1NC(=O)OC(C)c1c(F)cccc1F (centres unmarked) [Compound 1-120, (4′-{4-[1-(2,6-Difluoro-phenyl)-ethoxycarbonylamino]-3-methyl-isoxazol-5-yl}-biphenyl-4-yl)-acetic acid] | < 4.30 | > 6.52 |
| Cc1noc(-c2ccc(-c3cccc(CC(=O)O)c3)cc2)c1NC(=O)O[C@H](C)c1ccccc1 [Compound 1-121] | < 4.30 | > 6.52 |
| Cc1noc(-c2ccc(-c3ccc(C(=O)O)cc3)cc2)c1NC(=O)O[C@H](C)c1ccccc1 [Compound 1-122] | 4.30 to 6.00 | > 6.52 |
| Cc1noc(-c2ccc(-c3ccc(CC(=O)O)cc3)c(Cl)c2)c1NC(=O)O[C@H](C)c1ccccc1Cl [Compound 1-131, (2′-Chloro-4′-{4-[(R)-1-(2-chloro-phenyl)-ethoxycarbonylamino]-3-methyl-isoxazol-5-yl}-biphenyl-4-yl)-acetic acid] | 4.30 to 6.00 | > 6.52 |
